Measured values taken from patent publication US5187157A, “Peptide boronic acid inhibitors of trypsin-like proteases” (Du Pont Merck Pharmaceutical Company, priority 1988, dated 1993).

Experiments:
Human plasma kallikrein = target: T1, Human plasma kallikrein (Homo sapiens, UniProt P03952); assay: Inhibition of Human Plasma Kallikrein; format: biochemical; settings: activity remaining 10 to 20 min after initiation
T1 construct: purchased Protogen AG (Switzerland)
Method: (§1) In the Examples which follow, the hydrolytic activity of each enzyme is measured in both the presence and absence of inhibitor and the percent enzyme activity determined. […] A steady state is reached fairly rapidly and nears completion within 5 min. Activity is evaluated between 10-20 min after the components are mixed to insure that reaction components are at equilibrium. The lowest concentration of inhibitor tested is determined by the estimated concentration of enzyme. […] The maintenance of pseudo-first-order reaction conditions and the sensitivity of the respective assays sets the lowest limit level of inhibitor tested at 10 nM for kallikrein inhibitors and 5 nM for thrombin inhibitors.
Human plasma kallikrein was obtained from Protogen AG (Switzerland). The specific activity as described by the supplier is 15 units per mg. A unit is defined as the quantity of enzyme required to hydrolyze 1 μmole of substrate, H-(D)Pro-Phe-Arg-p-nitroanilide (Kabi S2302), per min at a substrate concentration of 0.50 mM at 25° in 50 mM potassium phosphate buffer, pH 8.0.

Human thrombin = target: T2, Human thrombin (Homo sapiens, UniProt P00734); assay: Inhibition of Thrombin (Esterase Activity); format: biochemical; settings: activity remaining 10 to 20 min after initiation
T2 construct: purchased R.Q.P. Laboratories, South Bend, IN Lot HT102
Method: as §1
A stock solution of thrombin was prepared in 0.010M PIPES Buffer, pH 6.0, containing 0.75 M sodium chloride. […] The initial concentration of substrate was 0.10 mM and the concentration of thrombin was 1.0 nM (based on weight).

normal human plasma [1] = assay: Activated partial thromboplastin times (APTT), blood coagulation in vitro; format: biochemical; settings: for Calc. Concentration 2 × APTT: approximate concentration required to increase APTT two fold
Method: (§2) The effectiveness of inhibitors in reactions in which they compete with natural substrates for target enzymes is measured in vitro in blood coagulation assays. Two different assays are used, the APTT (activated partial thromboplastin times) and PT (prothrombin times) assays. These assays mimic the blood clotting process in vivo. Blood coagulation occurs through either of two pathways, each consisting of a cascades of zymogen activation steps. The pathways are termed the intrinsic and the extrinsic pathways (see L. Lorand, Methods in Enzymology 45: 31-37 (1976). The intrinsic pathway is initiated by negatively charged surfaces in which plasma kallikrein, factor XII and factor […] are activated and then factors IX and X and prothrombin are activated in calcium dependent steps. Thrombin, the last protease in the cascade, hydrolyses fibrinogen to fibrin which results in clot formation. In the APTT assay, plasma components are activated by exposure to negatively charged surfaces and then clotting times are measured after calcium is added to the system. In the extrinsic pathway, tissue thromboplastin activates factor VII which then activates factor X leading to the activation of thrombin. These events are measured in the prothrombin times assay.
The effect of protease inhibitors on blood coagulation in vitro was determined by measuring their effects on two different clinical parameters, the activated partial thromboplastin times (APTT) and prothrombin times (PT). Reagents for each of these assays were supplied by General Diagnostics, Jessup MD. Stock solutions of inhibitors were prepared in […] HEPES buffer, pH 7.5, containing 0.10 M sodium chloride. For the APTT assay, the inhibitor solution (0.100 mL) was incubated with normal human plasma (0.100 mL) and automated APTT reagent (0.100 mL). After incubation for 5.0 min at 37°, calcium chloride (0.100 mL) was added and the clotting times, measured in seconds, was determined on a fibrameter. The effects of the varying concentrations of inhibitor on blood clotting times compared with the clotting times of controls run in the absence of inhibitor, are shown in Table 3.

normal human plasma [2] = assay: Prothrombin times (PT), blood coagulation in vitro; format: biochemical; settings: for Calc. Concentration 2 × XPT: approximate concentration required to increase PT two fold
Method: as §2
For PT assays, inhibitor solutions (0.100 mL) were incubated with normal human plasma (0.100 mL) for 2 min at 37°.

Sprague Dawley CD Rats = assay: In Vivo Inhibition of Croton Oil Induced Inflammation (ear swelling); settings: for Mean Swelling (mg ± SE): right minus left ear weight
Method: Two solutions were prepared, the first consisting of 5% croton oil, a known inflammatory agent, in an acetone carrier (Croton Solution) and the second consisting of 5% croton oil in an acetone carrier to which 10 mg/mL of a compound of the invention was added (Compound Solution). The Croton Solution (10 μL), or alternatively the Compound Solution (10 μL), was applied to the right ear of each animal (Sprague Dawley CD Rats, 130-140 g, supplied by Charles River Labs, Inc., Wilmington, MA). […] "SE" denotes standard error.

[3] = Stability of Inhibitors in Human Plasma As Measured By APTT; format: in vitro ADME; settings: 250 nM in APTT assay
Method: The stability of inhibitors in plasma was determined by their ability to inhibit blood coagulation. First, a stock solutions (1.0 μM) of the inhibitors to be tested in 25 mM HEPES buffer, pH 7.5, containing 0.10 M sodium chloride were diluted 50% with normal human plasma. The mixtures were made at 0°, then aliquots (0.200 mL) were removed and incubated for 2 min at 37°. An equal volume of automated APTT reagent was added and clotting times were measured as described in Examples 111-117. The final concentration of inhibitor during the clotting assays was 250 nM. Values for compounds E and F were determined simultaneously with the Control. Values for compounds A, B and C were obtained on a different day.

[4] = Table 14, dose=100 μg, essentially the same conditions
[5] = 100 μg/ear with 5% croton oil, topical, 1 h
[6] = Table 13, 100 μg/ear with 5% croton oil, topical, 1 h

T1 sequence (P03952 391-638 limits assumed): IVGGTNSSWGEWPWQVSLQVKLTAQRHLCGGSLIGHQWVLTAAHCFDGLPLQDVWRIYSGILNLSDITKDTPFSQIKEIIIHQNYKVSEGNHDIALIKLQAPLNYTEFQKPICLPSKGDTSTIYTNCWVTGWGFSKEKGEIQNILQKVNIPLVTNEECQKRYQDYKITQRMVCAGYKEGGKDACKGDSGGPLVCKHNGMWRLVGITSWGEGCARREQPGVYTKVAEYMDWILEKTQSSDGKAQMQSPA
T1 sequence (P03952 20-390 partner limits assumed): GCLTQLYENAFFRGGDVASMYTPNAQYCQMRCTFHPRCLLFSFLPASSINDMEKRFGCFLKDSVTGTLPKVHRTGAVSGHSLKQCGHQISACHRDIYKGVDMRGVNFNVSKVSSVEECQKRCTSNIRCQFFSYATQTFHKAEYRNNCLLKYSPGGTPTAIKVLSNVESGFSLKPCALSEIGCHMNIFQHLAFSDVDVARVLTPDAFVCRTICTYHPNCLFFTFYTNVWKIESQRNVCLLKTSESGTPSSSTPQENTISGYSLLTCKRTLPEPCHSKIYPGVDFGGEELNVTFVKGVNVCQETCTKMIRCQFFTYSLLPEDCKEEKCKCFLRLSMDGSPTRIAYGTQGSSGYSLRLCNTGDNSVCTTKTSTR

Row | Structure (SMILES) | Percent Activity (Human plasma kallikrein; inhibitor 10 nM) | Calc. Concentration 2 × APTT (normal human plasma [1]) | Activated Partial Thromboplastin Times (normal human plasma [1]; inhibitor 50 nM) | Activated Partial Thromboplastin Times (normal human plasma [1]; inhibitor 125 nM) | Activated Partial Thromboplastin Times (normal human plasma [1]; inhibitor 200 nM) | Activated Partial Thromboplastin Times (normal human plasma [1]; inhibitor 275 nM) | Activated Partial Thromboplastin Times (normal human plasma [1]; inhibitor 350 nM) | Activated Partial Thromboplastin Times (normal human plasma [1]; inhibitor 550 nM) | Calc. Concentration 2 × XPT (normal human plasma [2]) | Prothrombin Times (normal human plasma [2]; inhibitor 500 nM) | Prothrombin Times (normal human plasma [2]; inhibitor 750 nM) | Prothrombin Times (normal human plasma [2]; inhibitor 1000 nM) | Prothrombin Times (normal human plasma [2]; inhibitor 2000 nM) | Prothrombin Times (normal human plasma [2]; inhibitor 4000 nM) | Percent Inhibition (Sprague Dawley CD Rats; [4]) | Percent Activity (Human thrombin; inhibitor 1000 nM) | Mean Right ear Wt. (Sprague Dawley CD Rats; [5]) | Mean Swelling (mg ± SE) (Sprague Dawley CD Rats; [5]) | Percent Inhibition (Sprague Dawley CD Rats; [6]) | other results
1 | Br.CC(C)(C)OC(=O)NC(Cc1ccccc1)C(=O)NC(Cc1ccccc1)C(=O)NC(CCCSC(=N)N)B1OC2CC3CC(C3(C)C)C2(C)O1 (stereo not drawn) [Compound D, Boc-(D)Phe-Phe-boroIrg-C10 H16.HBr] | 2% | 370 nM | 35.8 s | 45.2 s | 46.2 s | 60.7 s | 75.7 s | 94.8 s | 1200 nM | 15.7 s | 17.2 s | 19.9 s | 23.4 s | 49.2 s | 93% |  |  |  |  | Percent Activity (Human thrombin; inhibitor 5 nM): 48%
2 | CC(=O)NC(Cc1ccccc1)C(=O)NC(CCCNC(=N)N)B1OC2CC3CC(C3(C)C)C2(C)O1.Cl (stereo not drawn) [Compound F, Ac-Phe-boroArg-C10 H16.HCl] | 48% | 325 nM | 35 s | 35.2 s | 36.7 s | 44.8 s | 58.2 s | 144.2 s | 2500 nM |  |  | 16.2 s | 20.8 s | 51.5 s |  | 53% | 18.9 mg | 2.3 ± 0.7 mg | 79% | Clotting Time ([3]; incubation in human plasma 0 h): 76.3 s; Clotting Time ([3]; incubation in human plasma 0.5 h): 76.4 s; Clotting Time ([3]; incubation in human plasma 1 h): 76.7 s; Clotting Time ([3]; incubation in human plasma 2 h): 79.6 s; Clotting Time ([3]; incubation in human plasma 3 h): 77.8 s; Clotting Time ([3]; incubation in human plasma 4 h): 81.8 s; Clotting Time ([3]; incubation in human plasma 5 h): 80.8 s; Clotting Time ([3]; incubation in human plasma 6 h): 79.3 s; Clotting Time ([3]; incubation in human plasma 24 h): 73.9 s; Clotting Time ([3]; incubation in human plasma 48 h): 49.3 s
3 | Br.CC(=O)NC(Cc1ccccc1)C(=O)NC(CCCSC(=N)N)B1OC2CC3CC(C3(C)C)C2(C)O1 (stereo not drawn) [G, Ac-Phe-boroIrg-C10 H16.HBr] |  | 625 nM | 35.2 s | 36.2 s | 39.3 s | 58.2 s | 66.7 s | 98.4 s | 1200 nM | 13.7 s | 14.9 s | 19.7 s | 43.6 s |  | 69% | 64% |  |  |  | Percent Activity (Human plasma kallikrein; inhibitor 50 nM): 17%
4 | COc1ccc2c(c1)c(CC(=O)O)c(C)n2C(=O)c1ccc(Cl)cc1 [Indomethacin, indomethacin, reference compound] |  |  |  |  |  |  |  |  |  |  |  |  |  |  |  |  | 20.6 mg | 5.0 ± 2.8 mg | 55% | 
